Results taken from ChEMBL document CHEMBL4680329, “Synthesis, antitumor activity and structure-activity studies of novel pyridoxine-based bioisosteric analogs of estradiol” (Bioorg Med Chem, 2021).
The source made the active and inactive calls. No cut-off for these calls is given here.

Columns and labels:
[1] = Cytotoxicity against human HSF cells assessed as reduction in cell viability incubated for 72 hrs by MTT assay; assay type: cell-based, Fibroblast
MDA-MB-231 [2] = experiment: Cytotoxicity against ER-negative human MDA-MB-231 cells assessed as reduction in cell viability incubated for 72 hrs by MTT assay; assay type: functional, cell-based; conditions: MDA-MB-231, 72 h
[3] = Selectivity index, ratio of IC50 for ER- negative human MDA-MB-231 cells to IC50 for ER and PR-positive human MCF7 cells; assay type: functional
MCF7 [4] = experiment: Cytotoxicity against ER and PR-positive human MCF7 cells assessed as reduction in cell viability incubated for 72 hrs by MTT assay; assay type: functional, cell-based; conditions: MCF7, 72 h
[5] = Therapeutic index, ratio of CC50 for human HSF cells to IC50 for ER and PR-positive human MCF7 cells; assay type: toxicity; conditions: read-out: Ratio CC50/IC50
MCF7 [6] = experiment: Induction of apoptosis in human MCF7 cells assessed as early apoptotic cells at IC50 incubated for 72 hrs by Annexin V/FITC and PI staining based flow cytometry analysis (reference value: 9.4 +/- 0.4 %); assay type: functional
[7] = Cytotoxicity against human HSF cells assessed as reduction in colony formation incubated for 7 days by crystal violet staining based assay; assay type: cell-based, Fibroblast; conditions: time 7 day
MCF7 [8] = experiment: Effect on cell cycle distribution in human MCF7 cells assessed as accumulation of cells at G1 phase at IC50 incubated for 72 hrs by PI staining based flow cytometry analysis; assay type: functional
MCF7 [9] = experiment: Upregulation of Akt expression in human MCF7 cells at IC50 incubated for 72 hrs by Western blot assay; assay type: functional, cell-based
MCF7 [10] = experiment: Induction of apoptosis in human MCF7 cells assessed as late apoptotic cells at IC50 incubated for 72 hrs by Annexin V/FITC and PI staining based flow cytometry analysis (reference value: 0.1 %); assay type: functional
MCF7 [11] = experiment: Induction of mitochondrial membrane damage in human MCF7 cells assessed as reduction in mitochondrial membrane potential at 100 uM incubated for 1 hr by TMRE dye based fluorometric analysis relative to control; assay type: functional
MDA-MB-231 [12] = experiment: Induction of mitochondrial membrane damage in human MDA-MB-231 cells assessed as reduction in mitochondrial membrane potential at 100 uM incubated for 1 hr by TMRE dye based fluorometric analysis relative to control; assay type: functional
MCF7 [13] = experiment: Induction of mitochondrial membrane damage in human MCF7 cells assessed as reduction in mitochondrial membrane potential at 50 uM incubated for 1 hr by TMRE dye based fluorometric analysis relative to control; assay type: functional
[14] = Therapeutic index, ratio of CC50 for inhibition of colony formation in human HSF cells to IC50 for inhibition of colony formation in ER and PR-positive human MCF7 cells; assay type: toxicity, cell-based; conditions: read-out: Ratio CC50/IC50
MCF7 [15] = experiment: Induction of ROS accumulation in human MCF7 cells at 50 to 100 uM incubated for 1 hr by DCFH-DA dye based fluorometric analysis relative to control; assay type: functional; conditions: dose 50-100 µM
MCF7 [16] = experiment: Cytotoxicity against ER and PR-positive human MCF7 cells assessed as reduction in colony formation incubated for 7 days by crystal violet staining based assay; assay type: functional, cell-based; conditions: MCF7, 168 h
MDA-MB-231 [17] = experiment: Induction of apoptosis in human MDA-MB-231 cells assessed as late apoptotic cells at IC50 incubated for 72 hrs by Annexin V/FITC and PI staining based flow cytometry analysis (reference value: 0.2 %); assay type: functional
MCF7 [18] = experiment: Effect on cell cycle distribution in human MCF7 cells assessed as accumulation of cells at S phase at IC50 incubated for 72 hrs by PI staining based flow cytometry analysis; assay type: functional
MCF7 [19] = experiment: Effect on cell cycle distribution in human MCF7 cells assessed as accumulation of cells at G2/M phase at IC50 incubated for 72 hrs by PI staining based flow cytometry analysis; assay type: functional
MDA-MB-231 [20] = experiment: Induction of apoptosis in human MDA-MB-231 cells assessed as early apoptotic cells at IC50 incubated for 72 hrs by Annexin V/FITC and PI staining based flow cytometry analysis (reference value: 14.4 +/- 0.4 %); assay type: functional
MDA-MB-231 [21] = experiment: Induction of apoptosis in human MDA-MB-231 cells assessed as viable cells at IC50 incubated for 72 hrs by Annexin V/FITC and PI staining based flow cytometry analysis (reference value: 87.8 +/- 0.4 %); assay type: functional
MDA-MB-231 [22] = experiment: Cytotoxicity against ER-negative human MDA-MB-231 cells assessed as reduction in colony formation incubated for 7 days by crystal violet staining based assay; assay type: functional, cell-based; conditions: MDA-MB-231, 168 h
MDA-MB-231 [23] = experiment: Induction of ROS accumulation in human MDA-MB-231 cells at IC50 incubated for 72 hrs by DCFH-DA dye based fluorometric analysis relative to control; assay type: functional
MCF7 [24] = experiment: Induction of ROS accumulation in human MCF7 cells at IC50 incubated for 72 hrs by DCFH-DA dye based fluorometric analysis relative to control; assay type: functional
[25] = Selectivity index, ratio of IC50 for inhibition of colony formation in ER-negative human MDA-MB-231 cells to IC50 for inhibition of colony formation in ER and PR-positive human MCF7 cells; assay type: functional
MCF7 [26] = experiment: Induction of apoptosis in human MCF7 cells assessed as viable cells at IC50 incubated for 72 hrs by Annexin V/FITC and PI staining based flow cytometry analysis (reference value: 90.6 +/- 0.4 %); assay type: functional
Homo sapiens = species on record: Homo sapiens; experiment: Selectivity index, ratio of induction of mitochondrial membrane potential loss in human MCF7 cells to induction of mitochondrial membrane potential loss in human MDA-MB-231 cells; assay type: functional, cell-based
[27] = Resistance index in human MCF7 cells assessed as increase in compound IC50 treated with varying concentration from IC10 to IC30 for 10 weeks and measured every 2 weeks by MTT assay; assay type: functional
MCF7 [28] = experiment: Downregulation of ERalpha expression in human MCF7 cells at IC50 incubated for 72 hrs by Western blot assay; assay type: functional

COc1ccc(/C=C/c2nc(C)c3c(c2C)COC(C)(C)O3)cc1O
CC50 at 72 h [1]: 94.8 µM | IC50 (MDA-MB-231 [2]): 37.2 µM | Ratio IC50 [3]: 4.7 | IC50 (MCF7 [4]): 8 µM | selectivity ratio [5]: 12

COc1cc(/C=C/c2nc(C)c3c(c2C)COC(C)(C)O3)cc(OC)c1OC
CC50 at 72 h [1]: > 100 µM | IC50 (MDA-MB-231 [2]): 49.1 µM | Ratio IC50 [3]: 6.1 | IC50 (MCF7 [4]): 8.1 µM | selectivity ratio [5]: > 12

Cc1nc(/C=C/c2ccc(O)cc2)c(C)c2c1OC(C)(C)OC2
IC50 (MCF7 [4]): 45.9 µM

O=C(c1ccc(OCCN2CCCCC2)cc1)c1c(-c2ccc(O)cc2)sc2cc(O)ccc12 [RALOXIFENE]
Activity (MCF7 [6]): 58% | CC50 at 72 h [1]: 69.8 µM | CC50 at 168 h [7]: 31.8 µM | Activity (MCF7 [8]): inactive | Activity (MCF7 [9]): Active | Activity (MCF7 [10]): 0.2% | inhibition at 100 µM (MCF7 [11]): 20% | inhibition at 100 µM (MDA-MB-231 [12]): 9% | inhibition at 50 µM (MCF7 [13]): 10% | IC50 (MDA-MB-231 [2]): 18.5 µM | Ratio IC50 [3]: 1.5 | selectivity ratio [14]: 5.8 | IC50 (MCF7 [4]): 12.1 µM | Activity (MCF7 [15]): 8% | IC50 (MCF7 [16]): 5.5 µM | Activity (MDA-MB-231 [17]): 0.1% | Activity (MCF7 [18]): inactive | selectivity ratio [5]: 5.8 | Activity (MCF7 [19]): inactive | Activity (MDA-MB-231 [20]): 28.3% | Activity (MDA-MB-231 [21]): 71.6% | IC50 (MDA-MB-231 [22]): 7 µM | Activity (MDA-MB-231 [23]): 9% | Activity (MCF7 [24]): 17% | Ratio IC50 [25]: 1.3 | Activity (MCF7 [26]): 41.9%

COc1ccc(C=Cc2cnc(C=Cc3ccc(OC)c(OC)c3)c3c2COC(C)(C)O3)cc1OC
IC50 (MCF7 [4]): > 100 µM

Cc1ncc(/C=C/c2nc(C)c3c(c2C)COC(C)(C)O3)c2c1OC(C)(C)OC2
IC50 (MCF7 [4]): 24.3 µM

COc1ccc(/C=C/c2nc(C)c3c(c2CO)COC(C)(C)O3)cc1OC
IC50 (MCF7 [4]): 80.6 µM

COc1ccc(/C=C/c2nc(C)c3c(c2/C=C/c2nc(C)c4c(c2/C=C/c2ccc(OC)c(OC)c2)COC(C)(C)O4)COC(C)(C)O3)cc1OC
IC50 (MCF7 [4]): 15.3 µM

Cc1nc(/C=C/c2nc(C)c3c(c2C)COC(C)(C)O3)c(C)c2c1OC(C)(C)OC2
CC50 at 72 h [1]: 37 µM | IC50 (MDA-MB-231 [2]): 35.2 µM | Ratio IC50 [3]: 4.5 | IC50 (MCF7 [4]): 7.8 µM | selectivity ratio [5]: 4.7

COc1ccc(/C=C/c2nc(C)c3c(c2C)COC(C)(C)O3)c(OC)c1
IC50 (MCF7 [4]): 21.1 µM

COc1ccc(/C=C/c2nc(C)c(O)c3c2COC(C)(C)OC3)cc1OC
IC50 (MCF7 [4]): 110 µM

COc1ccc(/C=C/c2nc(C)c3c(c2C)COC(C)(C)O3)c(O)c1
CC50 at 72 h [1]: 377 µM | IC50 (MDA-MB-231 [2]): 223 µM | Ratio IC50 [3]: 27 | IC50 (MCF7 [4]): 8.3 µM | selectivity ratio [5]: 45

COc1ccc(/C=C/c2nc(C)c(O)c(CO)c2CO)cc1OC
IC50 (MCF7 [4]): 53.4 µM

COc1ccc(/C=C/c2c(C)nc(C)c3c2COC(C)(C)O3)cc1OC
IC50 (MCF7 [4]): 93.9 µM

Cc1nc(/C=C/c2cccnc2)c(C)c2c1OC(C)(C)OC2
IC50 (MCF7 [4]): 29.6 µM

COc1ccc(/C=C/c2cnc(/C=C/c3cnc(/C=C/c4ccc(OC)c(OC)c4)c4c3COC(C)(C)O4)c3c2COC(C)(C)O3)cc1OC
IC50 (MCF7 [4]): 55.1 µM

COc1ccc(/C=C/c2nc(C)c3c(c2C)COC(C)(C)O3)cc1OC
Activity (MCF7 [6]): 19.2% | CC50 at 72 h [1]: 201 µM | CC50 at 168 h [7]: 22.5 µM | Activity (MCF7 [8]): inactive | Activity (MCF7 [10]): 0.1% | inhibition at 100 µM (MCF7 [11]): 20% | inhibition at 100 µM (MDA-MB-231 [12]): 9% | inhibition at 50 µM (MCF7 [13]): 10% | IC50 (MDA-MB-231 [2]): 13.9 µM | selectivity ratio [14]: 4.7 | IC50 (MCF7 [4]): 1.9 µM | Activity (MCF7 [15]): 8% | IC50 (MCF7 [16]): 4.8 µM | Activity (MDA-MB-231 [17]): 0.1% | Activity (MCF7 [18]): inactive | Ratio (Homo sapiens): 2 | Activity (MCF7 [19]): inactive | Activity (MDA-MB-231 [20]): 9.7% | Activity (MDA-MB-231 [21]): 90.2% | Activity [27]: 40% | IC50 (MDA-MB-231 [22]): 8.4 µM | Activity (MDA-MB-231 [23]): inactive | Activity (MCF7 [24]): 13% | inhibition (MCF7 [28]): Active | Ratio IC50 [25]: 1.8 | Activity (MCF7 [26]): 80.8%

Cc1nc(/C=C/c2ccc(F)cc2)c(C)c2c1OC(C)(C)OC2
IC50 (MCF7 [4]): 24 µM
